For three compounds, Activity results are on record in ChEMBL document CHEMBL5715954, “Silencing c-Myc translation as a therapeutic strategy through targeting PI3Kδ and CK1ε in hematological malignancies” (Blood, 2017).

SMILES strings stand for the structures.

Common to all, as to set-up: scale not given: the % may be the effect or the level left
Experiment [1] addresses Serine/threonine-protein kinase B-raf (Homo sapiens) (UniProt P15056). The experiment can be described thus: Inhibition of human BRAF assessed as enzyme activity at 1 uM using MEK1 (K97R) as substrate preincubated for 20 mins followed by [gamma-33P]-ATP addition and measured after 120 mins by radiometric Hot-SpotSM Kinase assay relative to control.
In experiment [2] the target is CDK2/Cyclin O (Homo sapiens) (UniProt P24941+P22674). The experiment can be described thus: Inhibition of human CDK2/cyclin O assessed as enzyme activity at 1 uM using Histone H1 as substrate preincubated for 20 mins followed by [gamma-33P]-ATP addition and measured after 120 mins by radiometric Hot-SpotSM Kinase assay relative to control. In kind it is protein-complex assay.

The target of experiment [3] is T1, Dual specificity tyrosine-phosphorylation-regulated kinase 4 (Homo sapiens) (UniProt Q9NR20).
T1 sequence (whole entry): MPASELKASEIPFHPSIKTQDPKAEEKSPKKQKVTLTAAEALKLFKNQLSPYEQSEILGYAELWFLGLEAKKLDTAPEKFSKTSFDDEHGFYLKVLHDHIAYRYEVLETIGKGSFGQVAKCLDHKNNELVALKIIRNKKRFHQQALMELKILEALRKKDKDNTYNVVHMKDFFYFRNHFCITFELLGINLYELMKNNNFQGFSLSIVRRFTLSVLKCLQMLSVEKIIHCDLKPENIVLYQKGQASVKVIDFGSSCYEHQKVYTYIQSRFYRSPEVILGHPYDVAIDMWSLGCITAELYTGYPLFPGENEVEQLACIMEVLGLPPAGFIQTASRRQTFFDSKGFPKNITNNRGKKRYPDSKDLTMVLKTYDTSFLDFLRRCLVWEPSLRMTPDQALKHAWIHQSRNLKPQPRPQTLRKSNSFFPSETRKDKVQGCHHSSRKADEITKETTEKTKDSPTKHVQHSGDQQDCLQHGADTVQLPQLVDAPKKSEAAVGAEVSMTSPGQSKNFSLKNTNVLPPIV
The experiment can be described thus: Inhibition of human DYRK4 assessed as enzyme activity at 1 uM using RRRFRPASPLRGPPK as substrate preincubated for 20 mins followed by [gamma-33P]-ATP addition and measured after 120 mins by radiometric Hot-SpotSM Kinase assay relative to control.

Experiment [4] addresses Myosin light chain kinase 2, skeletal/cardiac muscle (Homo sapiens) (UniProt Q9H1R3). The experiment can be described thus: Inhibition of human MLCK2 assessed as enzyme activity at 1 uM using KKLNRTLSFAEPG as substrate preincubated for 20 mins followed by [gamma-33P]-ATP addition and measured after 120 mins by radiometric Hot-SpotSM Kinase assay relative to control.
Experiment [5] has as its target Serine/threonine-protein kinase 26 (Homo sapiens) (UniProt Q9P289). The experiment can be described thus: Inhibition of human MST4 assessed as enzyme activity at 1 uM using myelin basic protein as substrate preincubated for 20 mins followed by [gamma-33P]-ATP addition and measured after 120 mins by radiometric Hot-SpotSM Kinase assay relative to control.
Experiment [6] addresses T2, Serine/threonine-protein kinase TAO1 (Homo sapiens) (UniProt Q7L7X3).
T2 sequence (whole entry): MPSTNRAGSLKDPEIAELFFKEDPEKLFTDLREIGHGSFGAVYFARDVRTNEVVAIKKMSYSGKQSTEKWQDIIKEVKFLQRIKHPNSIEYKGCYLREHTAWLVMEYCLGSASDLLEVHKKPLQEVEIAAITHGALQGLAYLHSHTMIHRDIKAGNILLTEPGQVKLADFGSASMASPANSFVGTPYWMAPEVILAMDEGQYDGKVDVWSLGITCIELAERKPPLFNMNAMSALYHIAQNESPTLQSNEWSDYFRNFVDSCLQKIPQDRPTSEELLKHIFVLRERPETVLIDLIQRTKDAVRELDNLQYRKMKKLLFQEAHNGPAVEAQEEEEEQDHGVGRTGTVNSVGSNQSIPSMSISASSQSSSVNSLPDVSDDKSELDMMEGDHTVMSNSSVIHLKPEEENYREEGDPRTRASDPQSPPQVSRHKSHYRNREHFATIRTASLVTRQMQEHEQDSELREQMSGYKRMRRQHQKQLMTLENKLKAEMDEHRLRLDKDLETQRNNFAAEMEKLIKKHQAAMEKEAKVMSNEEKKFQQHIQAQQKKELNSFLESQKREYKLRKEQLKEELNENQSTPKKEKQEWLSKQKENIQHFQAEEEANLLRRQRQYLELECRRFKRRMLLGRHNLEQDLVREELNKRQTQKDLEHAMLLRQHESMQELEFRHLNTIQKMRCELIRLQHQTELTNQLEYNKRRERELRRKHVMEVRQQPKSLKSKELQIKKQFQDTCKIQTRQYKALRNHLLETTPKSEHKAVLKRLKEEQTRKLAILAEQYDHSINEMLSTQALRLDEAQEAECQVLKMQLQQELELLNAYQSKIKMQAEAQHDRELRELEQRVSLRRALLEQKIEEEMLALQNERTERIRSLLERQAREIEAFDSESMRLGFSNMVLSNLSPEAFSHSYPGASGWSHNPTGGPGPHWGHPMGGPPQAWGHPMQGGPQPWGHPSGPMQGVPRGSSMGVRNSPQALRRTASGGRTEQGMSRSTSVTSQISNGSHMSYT
The experiment can be described thus: Inhibition of human TAOK1 assessed as enzyme activity at 1 uM using myelin basic protein as substrate preincubated for 20 mins followed by [gamma-33P]-ATP addition and measured after 120 mins by radiometric Hot-SpotSM Kinase assay relative to control.

Experiment [7] addresses Mitogen-activated protein kinase kinase kinase 20 (Homo sapiens) (UniProt Q9NYL2). The experiment can be described thus: Inhibition of human ZAK/MLTK assessed as enzyme activity at 1 uM using myelin basic protein as substrate preincubated for 20 mins followed by [gamma-33P]-ATP addition and measured after 120 mins by radiometric Hot-SpotSM Kinase assay relative to control.

Sequence of Myosin light chain kinase 2, skeletal/cardiac muscle (Homo sapiens) (Q9H1R3 whole entry): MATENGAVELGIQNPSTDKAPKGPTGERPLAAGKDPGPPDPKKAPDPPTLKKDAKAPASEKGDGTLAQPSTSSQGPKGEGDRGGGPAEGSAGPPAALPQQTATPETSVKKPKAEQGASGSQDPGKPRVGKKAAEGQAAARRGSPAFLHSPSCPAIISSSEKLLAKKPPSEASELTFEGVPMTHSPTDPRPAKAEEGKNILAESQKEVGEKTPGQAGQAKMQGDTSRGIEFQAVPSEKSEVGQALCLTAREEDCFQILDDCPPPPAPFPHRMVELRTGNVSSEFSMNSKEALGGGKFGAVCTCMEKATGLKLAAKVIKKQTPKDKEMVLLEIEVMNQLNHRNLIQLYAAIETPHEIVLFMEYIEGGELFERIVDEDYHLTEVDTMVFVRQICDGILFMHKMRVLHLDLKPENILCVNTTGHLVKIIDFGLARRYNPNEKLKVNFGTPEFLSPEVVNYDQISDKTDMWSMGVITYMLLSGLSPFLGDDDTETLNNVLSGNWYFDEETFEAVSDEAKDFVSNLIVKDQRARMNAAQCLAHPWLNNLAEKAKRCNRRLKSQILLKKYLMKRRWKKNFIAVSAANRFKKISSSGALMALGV
Sequence of Serine/threonine-protein kinase B-raf (Homo sapiens) (P15056 whole entry): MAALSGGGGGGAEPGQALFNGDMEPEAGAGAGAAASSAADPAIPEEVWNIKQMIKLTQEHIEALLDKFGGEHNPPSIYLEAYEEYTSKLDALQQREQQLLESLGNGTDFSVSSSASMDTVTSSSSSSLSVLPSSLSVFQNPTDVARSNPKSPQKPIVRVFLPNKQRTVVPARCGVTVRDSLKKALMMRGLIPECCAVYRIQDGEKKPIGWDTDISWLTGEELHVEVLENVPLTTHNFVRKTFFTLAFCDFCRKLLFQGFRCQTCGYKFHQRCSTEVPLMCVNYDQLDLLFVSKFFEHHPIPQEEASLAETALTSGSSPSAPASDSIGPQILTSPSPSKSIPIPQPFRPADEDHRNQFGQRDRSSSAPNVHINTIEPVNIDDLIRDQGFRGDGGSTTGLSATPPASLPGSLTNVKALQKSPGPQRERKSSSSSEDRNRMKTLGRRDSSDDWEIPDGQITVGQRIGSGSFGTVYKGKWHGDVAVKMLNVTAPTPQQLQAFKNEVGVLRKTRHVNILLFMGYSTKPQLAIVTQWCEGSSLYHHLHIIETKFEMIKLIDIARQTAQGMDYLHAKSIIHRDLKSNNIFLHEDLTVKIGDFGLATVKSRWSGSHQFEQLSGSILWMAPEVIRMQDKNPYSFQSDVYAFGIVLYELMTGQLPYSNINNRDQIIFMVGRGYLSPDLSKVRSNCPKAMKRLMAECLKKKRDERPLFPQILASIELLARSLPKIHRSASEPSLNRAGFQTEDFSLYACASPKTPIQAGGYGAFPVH
Sequence of Mitogen-activated protein kinase kinase kinase 20 (Homo sapiens) (Q9NYL2 2-800 limits assumed): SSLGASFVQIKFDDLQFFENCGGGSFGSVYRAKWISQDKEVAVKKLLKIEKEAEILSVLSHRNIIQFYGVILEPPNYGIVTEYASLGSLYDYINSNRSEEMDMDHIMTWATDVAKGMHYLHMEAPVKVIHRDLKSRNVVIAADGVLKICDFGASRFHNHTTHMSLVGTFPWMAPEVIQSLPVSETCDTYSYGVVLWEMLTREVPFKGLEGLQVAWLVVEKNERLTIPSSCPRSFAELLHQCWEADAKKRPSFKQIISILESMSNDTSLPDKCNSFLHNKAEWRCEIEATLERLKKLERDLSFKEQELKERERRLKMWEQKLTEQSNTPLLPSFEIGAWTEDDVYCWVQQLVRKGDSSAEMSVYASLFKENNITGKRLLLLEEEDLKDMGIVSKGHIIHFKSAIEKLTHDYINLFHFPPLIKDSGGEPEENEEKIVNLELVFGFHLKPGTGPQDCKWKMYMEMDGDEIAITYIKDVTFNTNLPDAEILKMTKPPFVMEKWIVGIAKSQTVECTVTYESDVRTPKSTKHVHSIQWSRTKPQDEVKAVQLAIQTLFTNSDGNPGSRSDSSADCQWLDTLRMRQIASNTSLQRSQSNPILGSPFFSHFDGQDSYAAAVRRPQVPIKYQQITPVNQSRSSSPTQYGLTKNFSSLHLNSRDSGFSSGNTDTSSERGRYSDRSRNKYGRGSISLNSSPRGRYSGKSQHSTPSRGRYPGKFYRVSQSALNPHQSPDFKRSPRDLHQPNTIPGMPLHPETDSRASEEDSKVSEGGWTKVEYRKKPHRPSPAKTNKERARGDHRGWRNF
Sequence of Serine/threonine-protein kinase 26 (Homo sapiens) (Q9P289 2-416 limits assumed): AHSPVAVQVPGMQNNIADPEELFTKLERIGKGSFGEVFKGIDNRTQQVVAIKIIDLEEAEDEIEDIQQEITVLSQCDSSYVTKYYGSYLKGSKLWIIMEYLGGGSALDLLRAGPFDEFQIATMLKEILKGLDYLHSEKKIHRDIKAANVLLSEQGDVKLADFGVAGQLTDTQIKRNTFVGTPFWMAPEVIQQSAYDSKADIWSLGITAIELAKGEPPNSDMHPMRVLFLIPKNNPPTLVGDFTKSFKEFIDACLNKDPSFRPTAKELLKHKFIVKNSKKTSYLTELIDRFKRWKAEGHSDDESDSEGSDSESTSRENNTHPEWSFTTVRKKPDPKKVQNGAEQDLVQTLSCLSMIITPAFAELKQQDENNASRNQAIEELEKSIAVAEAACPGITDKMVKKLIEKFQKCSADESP

Consider `C[C@H](Nc1ncnc2nc[nH]c12)c1cc2cccc(Cl)c2c(=O)n1-c1ccccc1`, for which the Activity was determined as 85.9% in experiment [1]; 90.7% in experiment [2]; 97.1% in experiment [3]; 100% in experiment [4]; 83.5% in experiment [5]; 97.9% in experiment [6]. The Activity in experiment [7] is 88.7%.
Regarding `CC[C@H](Nc1ncnc2[nH]cnc12)c1nc2cccc(F)c2c(=O)n1-c1ccccc1`, the Activity was 87.6% in experiment [1]; 92.8% in experiment [2]; 100% in experiment [3]; 98.7% in experiment [4]; 91.5% in experiment [5]; 101% in experiment [6]. In experiment [7], the Activity came to 96.5%.
Take `CC(C)Oc1ccc(-c2nn([C@@H](C)c3oc4ccc(F)cc4c(=O)c3-c3cccc(F)c3)c3ncnc(N)c23)cc1F` [UMBRALISIB]: the Activity in experiment [1] is 92.2%; in experiment [2], 92.9%; in experiment [3] it was 98.8%; in experiment [4], 101%; in experiment [5] it was 88.2%; in experiment [6], 92.9%. Besides, the Activity in experiment [7] turned out to be 92.3%.
